Test results from ChEMBL document CHEMBL2021793, “Synthesis, biological evaluation and structure-activity relationships of glycyrrhetinic acid derivatives as novel anti-hepatitis B virus agents” (Bioorg Med Chem Lett, 2012).

What was measured:
Hepatitis B virus [1] = test: Antiviral activity against Hepatitis B virus infected in human HepG2(2.2.15) cells assessed as reduction in viral DNA replication; type: functional, organism-based
Hepatitis B virus [2] = test: Antiviral activity against Hepatitis B virus infected in human HepG2(2.2.15) cells assessed as reduction in hepatitis B surface antigen release; type: functional, organism-based
Hepatitis B virus [3] = test: Antiviral activity against Hepatitis B virus infected in human HepG2(2.2.15) cells assessed as reduction in hepatitis B e-antigen release; type: functional, organism-based
[4] = Cytotoxicity against human HepG2(2.2.15) cells; type: cell-based
[5] = Selectivity index, ratio of CC50 for human HepG2(2.2.15) cells to IC50 for HBV by viral DNA replication detection assay; type: functional

| SMILES | IC50 (Hepatitis B virus [1]) | IC50 (Hepatitis B virus [2]) | IC50 (Hepatitis B virus [3]) | CC50 [4] | Ratio CC50/IC50 [5] |
| --- | --- | --- | --- | --- | --- |
| CC1(C)[C@@H](O)CC[C@]2(C)[C@H]3C(=O)C=C4[C@@H]5C[C@@](C)(C(=O)OCc6cc(C(F)(F)F)cc(C(F)(F)F)c6)CC[C@]5(C)CC[C@@]4(C)[C@]3(C)CC[C@@H]12 | > 426 µM | > 1700 µM | > 1700 µM | > 1700 µM | – |
| CC1(C)[C@@H](O)CC[C@]2(C)[C@H]3C(=O)C=C4[C@@H]5C[C@@](C)(C(=O)OCC6CCOCC6)CC[C@]5(C)CC[C@@]4(C)[C@]3(C)CC[C@@H]12 | > 479 µM | > 1910 µM | > 1910 µM | > 1910 µM | – |
| CCCCCCOC(=O)[C@@]1(C)CC[C@]2(C)CC[C@]3(C)C(=CC(=O)[C@@H]4[C@@]5(C)CC[C@H](O)C(C)(C)[C@@H]5CC[C@]43C)[C@@H]2C1 | 66.2 µM | > 1700 µM | > 1700 µM | 175 µM | 2.6 |
| CCOCCOC(=O)[C@@]1(C)CC[C@]2(C)CC[C@]3(C)C(=CC(=O)[C@@H]4[C@@]5(C)CC[C@H](O)C(C)(C)[C@@H]5CC[C@]43C)[C@@H]2C1 | 198 µM | 835 µM | > 1720 µM | 541 µM | 2.7 |
| CC1(C)[C@@H](O)CC[C@]2(C)[C@H]3C(=O)C=C4[C@@H]5C[C@@](C)(C(=O)OCc6cccnc6)CC[C@]5(C)CC[C@@]4(C)[C@]3(C)CC[C@@H]12 | 171 µM | 1070 µM | > 1360 µM | 321 µM | 1.9 |
| CC1(C)[C@@H](OC(=O)c2cc(=O)c3ccccc3o2)CC[C@]2(C)[C@H]3CC=C4[C@@H]5C[C@@](C)(C(=O)OCc6ccc(Br)cc6F)CC[C@]5(C)CC[C@@]4(C)[C@]3(C)CC[C@@H]12 | > 271 µM | > 1080 µM | > 1080 µM | > 1080 µM | – |
| CC1(C)[C@@H](O)CC[C@]2(C)[C@H]3C(=O)C=C4[C@@H]5C[C@@](C)(C(=O)OCc6ccc(Br)cc6F)CC[C@]5(C)CC[C@@]4(C)[C@]3(C)CC[C@@H]12 | 18.1 µM | > 805 µM | > 805 µM | > 1430 µM | >79 |
| CC1(C)[C@@H](O)CC[C@]2(C)[C@H]3C(=O)C=C4[C@@H]5C[C@@](C)(C(=O)OCc6ccccc6)CC[C@]5(C)CC[C@@]4(C)[C@]3(C)CC[C@@H]12 | 153 µM | > 2010 µM | > 2010 µM | 2010 µM | 13.1 |
| CC1(C)[C@@H](O)CC[C@]2(C)[C@H]3C(=O)C=C4[C@@H]5C[C@@](C)(C(=O)OCCCBr)CC[C@]5(C)CC[C@@]4(C)[C@]3(C)CC[C@@H]12 | 28.6 µM | > 1390 µM | > 1390 µM | 160 µM | 5.6 |
| CC1(C)[C@@H](OC(=O)c2cc(=O)c3ccccc3o2)CC[C@]2(C)[C@H]3CC=C4[C@@H]5C[C@@](C)(C(=O)OCc6ccc(C(F)(F)F)cc6)CC[C@]5(C)CC[C@@]4(C)[C@]3(C)CC[C@@H]12 | > 293 µM | > 1170 µM | > 1170 µM | > 1170 µM | – |
| CCCCCCCCOC(=O)[C@@]1(C)CC[C@]2(C)CC[C@]3(C)C(=CC(=O)[C@@H]4[C@@]5(C)CC[C@H](O)C(C)(C)[C@@H]5CC[C@]43C)[C@@H]2C1 | > 362 µM | > 1450 µM | > 1450 µM | > 1450 µM | – |
| COC(=O)[C@@]1(C)CC[C@]2(C)CC[C@]3(C)C(=CC(=O)[C@@H]4[C@@]5(C)CC[C@H](O)C(C)(C)[C@@H]5CC[C@]43C)[C@@H]2C1 | > 444 µM | > 1740 µM | > 1740 µM | > 1740 µM | – |
| CC1(C)[C@@H](O)CC[C@]2(C)[C@H]3CC=C4[C@@H]5C[C@@](C)(C(=O)OCc6ccc(C(F)(F)F)cc6)CC[C@]5(C)CC[C@@]4(C)[C@]3(C)CC[C@@H]12 | > 375 µM | > 1500 µM | > 1500 µM | > 1500 µM | – |
| CCCCOC(=O)[C@@]1(C)CC[C@]2(C)CC[C@]3(C)C(=CC(=O)[C@@H]4[C@@]5(C)CC[C@H](O)C(C)(C)[C@@H]5CC[C@]43C)[C@@H]2C1 | > 247 µM | > 986 µM | > 986 µM | > 986 µM | – |
| CCCCCCCCCCOC(=O)[C@@]1(C)CC[C@]2(C)CC[C@]3(C)C(=CC(=O)[C@@H]4[C@@]5(C)CC[C@H](O)C(C)(C)[C@@H]5CC[C@]43C)[C@@H]2C1 | > 257 µM | > 1030 µM | > 1030 µM | > 1030 µM | – |
| CC1(C)[C@@H](O)CC[C@]2(C)[C@H]3C(=O)C=C4[C@@H]5C[C@@](C)(C(=O)OCc6cc(F)cc(F)c6)CC[C@]5(C)CC[C@@]4(C)[C@]3(C)CC[C@@H]12 | > 307 µM | > 1230 µM | > 1230 µM | > 1230 µM | – |
| C=CCOC(=O)[C@@]1(C)CC[C@]2(C)CC[C@]3(C)C(=CC(=O)[C@@H]4[C@@]5(C)CC[C@H](O)C(C)(C)[C@@H]5CC[C@]43C)[C@@H]2C1 | > 578 µM | > 2310 µM | > 2310 µM | > 2310 µM | – |

Continued, in another order:

| IC50 (Hepatitis B virus [1]) | IC50 (Hepatitis B virus [2]) | IC50 (Hepatitis B virus [3]) | SMILES | CC50 [4] | Ratio CC50/IC50 [5] |
| --- | --- | --- | --- | --- | --- |
| 47.2 µM | 209 µM | > 1750 µM | CCOC(=O)CCCCCOC(=O)[C@@]1(C)CC[C@]2(C)CC[C@]3(C)C(=CC(=O)[C@@H]4[C@@]5(C)CC[C@H](O)C(C)(C)[C@@H]5CC[C@]43C)[C@@H]2C1 | 54.7 µM | 1.2 |
| > 382 µM | > 1530 µM | > 1530 µM | CC1(C)[C@@H](O)CC[C@]2(C)[C@H]3CC=C4[C@@H]5C[C@@](C)(C(=O)OCc6ccc(Br)cc6F)CC[C@]5(C)CC[C@@]4(C)[C@]3(C)CC[C@@H]12 | 1150 µM | – |
| > 236 µM | > 944 µM | > 944 µM | CC1(C)[C@@H](OC(=O)c2cc(=O)c3ccccc3o2)CC[C@]2(C)[C@H]3CC=C4[C@@H]5C[C@@](C)(C(=O)OCC(N)=O)CC[C@]5(C)CC[C@@]4(C)[C@]3(C)CC[C@@H]12 | > 944 µM | – |
| > 259 µM | > 1030 µM | > 1030 µM | COc1cc(/C=C/C(=O)O[C@H]2CC[C@]3(C)[C@H]4CC=C5[C@@H]6C[C@@](C)(C(=O)OCc7ccc(Br)cc7F)CC[C@]6(C)CC[C@@]5(C)[C@]4(C)CC[C@H]3C2(C)C)cc(OC)c1OC | 935 µM | – |
| > 292 µM | 638 µM | > 1170 µM | CCOC(=O)CCCOC(=O)[C@@]1(C)CC[C@]2(C)CC[C@]3(C)C(=CC[C@@H]4[C@@]5(C)CC[C@H](O)C(C)(C)[C@@H]5CC[C@]43C)[C@@H]2C1 | 530 µM | – |
| > 294 µM | > 1180 µM | > 1180 µM | CCOC(=O)CCCOC(=O)[C@@]1(C)CC[C@]2(C)CC[C@]3(C)C(=CC[C@@H]4[C@@]5(C)CC[C@H](OC(=O)c6cc(=O)c7ccccc7o6)C(C)(C)[C@@H]5CC[C@]43C)[C@@H]2C1 | > 1180 µM | – |
| > 247 µM | > 987 µM | > 987 µM | COc1cc(/C=C/C(=O)O[C@H]2CC[C@]3(C)[C@H]4CC=C5[C@@H]6C[C@@](C)(C(=O)OCc7ccc(C(F)(F)F)cc7)CC[C@]6(C)CC[C@@]5(C)[C@]4(C)CC[C@H]3C2(C)C)cc(OC)c1OC | > 987 µM | – |
| > 225 µM | > 899 µM | > 899 µM | COc1cccc(/C=C/C(=O)O[C@H]2CC[C@]3(C)[C@H]4CC=C5[C@@H]6C[C@@](C)(C(=O)OCc7ccc(C(F)(F)F)cc7)CC[C@]6(C)CC[C@@]5(C)[C@]4(C)CC[C@H]3C2(C)C)c1 | > 899 µM | – |
| > 250 µM | > 1000 µM | > 1000 µM | COc1cccc(/C=C/C(=O)O[C@H]2CC[C@]3(C)[C@H]4CC=C5[C@@H]6C[C@@](C)(C(=O)OCc7ccc(Br)cc7F)CC[C@]6(C)CC[C@@]5(C)[C@]4(C)CC[C@H]3C2(C)C)c1 | > 1000 µM | – |
| > 307 µM | > 1230 µM | > 1230 µM | CCOC(=O)CCCOC(=O)[C@@]1(C)CC[C@]2(C)CC[C@]3(C)C(=CC[C@@H]4[C@@]5(C)CC[C@H](OC(=O)/C=C/c6cc(OC)c(OC)c(OC)c6)C(C)(C)[C@@H]5CC[C@]43C)[C@@H]2C1 | > 1230 µM | – |
